23 compounds from patent US11820766B2, “Monoacylglycerol lipase modulators” (Janssen Pharmaceutica NV, priority 2018, dated 2023) can be followed below.

SMILES strings stand for the structures.

In the assay the target is T1, human MGL from HeLa cells (Homo sapiens, UniProt Q99685).
T1 construct: combining endogenously expressed MGL from HeLa cells with test compounds; endogenous in cells; host or cells: HeLa cells / cell homogenates
T1 sequence (Q99685 1-303): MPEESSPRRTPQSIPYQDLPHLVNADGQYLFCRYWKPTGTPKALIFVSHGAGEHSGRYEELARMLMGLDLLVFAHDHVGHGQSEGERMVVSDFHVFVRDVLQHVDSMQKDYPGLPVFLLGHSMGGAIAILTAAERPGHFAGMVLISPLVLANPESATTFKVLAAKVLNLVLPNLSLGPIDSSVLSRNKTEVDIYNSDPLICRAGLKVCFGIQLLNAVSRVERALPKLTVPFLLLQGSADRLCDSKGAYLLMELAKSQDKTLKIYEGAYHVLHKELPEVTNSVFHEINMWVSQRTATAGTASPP
Nature of the assay: In vitro MGL activity assay: [glycerol-1,3-3H]-oleyl glycerol cleavage by MGL from HeLa cells. It is filed as biochemical. To be noted: 300 nM [Glycerol-1,3-3H]-oleyl glycerol, one hour incubation. An excerpt:
MGL is the predominant hydrolase in HeLa cells/cell homogenates.
Broadly, the IC50 is the concentration needed to halve the response being measured. A lower IC50 goes with greater potency. For `Cn1nc2c(c1-c1cccc(Cl)c1)CCN(C(=O)c1ccc3ncccc3c1)C2` [Example 99, (3-(3-Chlorophenyl)-2-methyl-2,4,5,7-tetrahydro-6H-pyrazolo[3,4-c]pyridin-6-yl)(quinolin-6-yl)methanone], the IC50 was found to be 268 nM. In other words, the sub-micromolar range.
Consider `Cn1nc2c(c1-c1cccc(F)c1)CCN(C(=O)c1ccc3ncccc3c1)C2` [Example 100, (3-(3-Fluorophenyl)-2-methyl-2,4,5,7-tetrahydro-6H-pyrazolo[3,4-c]pyridin-6-yl)(quinolin-6-yl)methanone], for which the half-maximal inhibitory concentration (IC50) turned out to be 125 nM.
For `Cn1nc2c(c1-c1cc(F)cc(F)c1)CCN(C(=O)c1ccc3ncccc3c1)C2` [Example 101, (3-(3,5-Difluorophenyl)-2-methyl-2,4,5,7-tetrahydro-6H-pyrazolo[3,4-c]pyridin-6-yl)(quinolin-6-yl)methanone] the value was 52.4 nM.
The value for `Cc1ccc(-c2c3c(nn2C)CN(C(=O)c2noc4ccccc24)CC3)s1` [Example 102, Benzo[d]isoxazol-3-yl(2-methyl-3-(5-methylthiophen-2-yl)-2,4,5,7-tetrahydro-6H-pyrazolo[3,4-c]pyridin-6-yl)methanone] was 158 nM; that for `Cn1nc2c(c1-c1ccc(C(F)(F)F)s1)CCN(C(=O)c1ccc3ncccc3c1)C2` [Example 103, (2-Methyl-3-(5-(trifluoromethyl)thiophen-2-yl)-2,4,5,7-tetrahydro-6H-pyrazolo[3,4-c]pyridin-6-yl)(quinolin-6-yl)methanone] was 264 nM; that for `Cn1nc2c(c1-c1cc3ccccc3[nH]1)CCN(C(=O)c1ccc3ncccc3c1)C2` [Example 104, (3-(1H-Indol-2-yl)-2-methyl-2,4,5,7-tetrahydro-6H-pyrazolo[3,4-c]pyridin-6-yl)(quinolin-6-yl)methanone] was 791 nM.
For `Cn1nc2c(c1-c1cc3ccccc3n1C)CCN(C(=O)c1ccc3ncccc3c1)C2` [Example 105, (2-Methyl-3-(1-methyl-1H-indol-2-yl)-2,4,5,7-tetrahydro-6H-pyrazolo[3,4-c]pyridin-6-yl)(quinolin-6-yl)methanone] the value was 406 nM; for `CC1c2nn(C)c(-c3cc(F)cc(F)c3)c2CCN1C(=O)c1ccc2ncccc2c1` (centres unmarked) [Example 106, (3-(3,5-Difluorophenyl)-2,7-dimethyl-2,4,5,7-tetrahydro-6H-pyrazolo[3,4-c]pyridin-6-yl)(quinolin-6-yl)methanone], 7.36 nM; for `Cc1ccc(-c2c3c(nn2C)[C@H](C)N(C(=O)c2ccc4nccnc4c2)CC3)o1` [Example 107, (S)-(2,7-Dimethyl-3-(5-methylfuran-2-yl)-2,4,5,7-tetrahydro-6H-pyrazolo[3,4-c]pyridin-6-yl)(quinoxalin-6-yl)methanone], 261 nM.
`C[C@H]1c2nn(C)c(-c3cccnc3)c2CCN1C(=O)c1ccc2nccnc2c1` [Example 108, (S)-(2,7-Dimethyl-3-(pyridin-3-yl)-2,4,5,7-tetrahydro-6H-pyrazolo[3,4-c]pyridin-6-yl)(quinoxalin-6-yl)methanone] displayed an IC50 of 1300 nM.
Compound `C[C@H]1c2nn(C)c(-c3cncc(F)c3)c2CCN1C(=O)c1ccc2nccnc2c1` [Example 109, (S)-(3-(5-Fluoropyridin-3-yl)-2,7-dimethyl-2,4,5,7-tetrahydro-6H-pyrazolo[3,4-c]pyridin-6-yl)(quinoxalin-6-yl)methanone] gave an IC50 of 721 nM.
For `CC1c2nn(-c3ccccc3)c(-c3ccccc3)c2CCN1C(=O)c1ccc2ncccc2c1` (centres unmarked) [Example 113, (7-Methyl-2,3-diphenyl-2,4,5,7-tetrahydro-6H-pyrazolo[3,4-c]pyridin-6-yl)(quinolin-6-yl)methanone] the value was 236 nM; for `C[C@H]1c2nn(C)c(-c3cccc(Cl)c3)c2CCN1C(=O)c1cc(Cl)cc(OC(F)(F)F)c1` [Example 116, (S)-(3-Chloro-5-(trifluoromethoxy)phenyl)(3-(3-chlorophenyl)-2,7-dimethyl-2,4,5,7-tetrahydro-6H-pyrazolo[3,4-c]pyridin-6-yl)methanone], 199 nM.
Compound `C[C@H]1c2nn(C)c(-c3cccc(Cl)c3)c2CCN1C(=O)c1ncn(-c2ccccc2)n1` [Example 117, (S)-(3-(3-Chlorophenyl)-2,7-dimethyl-2,4,5,7-tetrahydro-6H-pyrazolo[3,4-c]pyridin-6-yl)(1-phenyl-1H-1,2,4-triazol-3-yl)methanone] returned an IC50 of 56.7 nM. This IC50 is about 3.5-fold lower than that of the compound before.
Compound `CCc1nc(C(=O)N2CCc3c(nn(C)c3-c3cccc(Cl)c3)[C@@H]2C)nn1-c1ccccc1F` [Example 118, (S)-(3-(3-Chlorophenyl)-2,7-dimethyl-2,4,5,7-tetrahydro-6H-pyrazolo[3,4-c]pyridin-6-yl)(5-ethyl-1-(2-fluorophenyl)-1H-1,2,4-triazol-3-yl)methanone] registered an IC50 of 13.8 nM.
Take `C[C@H]1c2nn(C)c(-c3cccc(Cl)c3)c2CCN1C(=O)c1cc(CO)ccn1` [Example 119, (S)-(3-(3-Chlorophenyl)-2,7-dimethyl-2,4,5,7-tetrahydro-6H-pyrazolo[3,4-c]pyridin-6-yl)(4-(hydroxymethyl)pyridin-2-yl)methanone]: the IC50 worked out at 398 nM. This IC50 is about 29-fold higher than that of the compound before.
The compound `COCc1cncc(C(=O)N2CCc3c(nn(C)c3-c3cccc(Cl)c3)[C@@H]2C)c1` [Example 120, (S)-(3-(3-Chlorophenyl)-2,7-dimethyl-2,4,5,7-tetrahydro-6H-pyrazolo[3,4-c]pyridin-6-yl)(5-(methoxymethyl)pyridin-3-yl)methanone] displayed an IC50 of 174 nM.
`CC(C)Oc1ccc(C(=O)N2CCc3c(nn(C)c3-c3cccc(Cl)c3)[C@@H]2C)cn1` [Example 121, (S)-(3-(3-Chlorophenyl)-2,7-dimethyl-2,4,5,7-tetrahydro-6H-pyrazolo[3,4-c]pyridin-6-yl)(6-isopropoxypyridin-3-yl)methanone] came in with an IC50 of 330 nM.
Consider `CC(C)Oc1cncc(C(=O)N2CCc3c(nn(C)c3-c3cccc(Cl)c3)[C@@H]2C)c1` [Example 122, (S)-(3-(3-Chlorophenyl)-2,7-dimethyl-2,4,5,7-tetrahydro-6H-pyrazolo[3,4-c]pyridin-6-yl)(5-isopropoxypyridin-3-yl)methanone], for which the IC50 came out at 78.2 nM.
In turn, `C[C@H]1c2nn(C)c(-c3cccc(Cl)c3)c2CCN1C(=O)c1cccc2c1OCO2` [Example 123, (S)-Benzo[d][1,3]dioxol-4-yl(3-(3-chlorophenyl)-2,7-dimethyl-2,4,5,7-tetrahydro-6H-pyrazolo[3,4-c]pyridin-6-yl)methanone] showed a half-inhibitory concentration (IC50) of 45.1 nM. Against the preceding compound, the IC50 is about 1.7-fold lower.
For `C[C@H]1c2nn(C)c(-c3cccc(Cl)c3)c2CCN1C(=O)c1ccc2[nH]c(=O)oc2c1` [Example 124, (S)-6-(3-(3-Chlorophenyl)-2,7-dimethyl-4,5,6,7-tetrahydro-2H-pyrazolo[3,4-c]pyridine-6-carbonyl)benzo[d]oxazol-2(3H)-one] the value was 19.7 nM; for `Cc1nc2ccc(C(=O)N3CCc4c(nn(C)c4-c4cccc(Cl)c4)[C@@H]3C)cc2o1` [Example 125, (S)-(3-(3-Chlorophenyl)-2,7-dimethyl-2,4,5,7-tetrahydro-6H-pyrazolo[3,4-c]pyridin-6-yl)(2-methylbenzo[d]oxazol-6-yl)methanone], 9.52 nM.
As to `C[C@H]1c2nn(C)c(-c3cccc(Cl)c3)c2CCN1C(=O)c1cc2ncccc2o1` [Example 129, (S)-(3-(3-Chlorophenyl)-2,7-dimethyl-2,4,5,7-tetrahydro-6H-pyrazolo[3,4-c]pyridin-6-yl)(furo[3,2-b]pyridin-2-yl)methanone], the IC50 amounted to 47.2 nM.
